Measurements from US20060069095A1, “Azole derivatives” (priority 2004, published 2006).

How the values were obtained:
HEK293 cells = assay: CellTiter-Glo Luminescent Cell Viability Assay in HEK293 cells; type: cell-based; details: Homo sapiens, 168 h, 7 days incubation, 3 μM to 0.00015 μM
Description: CellTiter-Glo™ Assay in HEK293 Cells
The CellTiter-Glo™ Luminescent Cell Viability Assay (Promega) is a homogeneous method of determining the number of viable cells in culture based on quantitation of the ATP present, which signals the presence of metabolically active cells.
HEK293 cells (human embryonic kidney cell line transformed by Adenovirus 5 fragments, ATCC-No. CRL 1573) were cultivated in Dulbecco's Modified Eagle Medium (DMEM) with Glutamax™ (Invitrogen, 31966-021), 5% Fetal Calf Serum (FCS, Sigma Cat-No. F4135 (FBS)), 100 Units/ml penicillin/100 μg/ml streptomycin (=Pen/Strep from Invitrogen Cat. No. 15140)., For the assay the cells were seeded in 384 well plates, 5000 cells per well, in the same medium. The next day the test compounds were added in various concentrations ranging from 3 μM to 0.00015 μM (10 concentrations, 1:3 diluted). After 7 days the CellTiter-Glo™ assay was done according to the instructions of the manufacturer (CellTiter-Glo™ Luminescent Cell Viability Assay, from Promega). In brief: the cell-plate was equilibrated to room temperature for approximately 30 minutes and than the CellTiter-Glo™ reagent was added. The contents were carefully mixed for 15 minutes to induce cell lysis. After 45 minutes the luminescent signal was measured in Victor 2, (scanning multiwell spectrophotometer, Wallac).
Medium: Dulbecco's Modified Eagle Medium (DMEM) with Glutamax™ (Invitrogen, 31966-021), 5% Fetal Calf Serum (FCS, Sigma Cat-No. F4135 (FBS)), Pen/Strep (Invitrogen Cat. No. 15140).
Incubate 24 h at 37° C., 5% CO2
2nd Day: Induction (Substance Testing):
In general the dilution steeps are 1:3 • a) Add 8 μl of 10 mM stock solution of compound to 72 μl DMSO • b) dilute 9×1:3 (always 30 μl to 60 μl DMSO) in this DMSO dilution row (results in 10 wells with concentrations from 1000 μM to 0.06 μM) • c) dilute each concentration 1:4.8 (10 μl compound dilution to 38 μl medium) • d) dilute each concentration 1:10 (10 μl compound dilution to 90 μl medium) • e) add 10 μl of every concentration to 60 μl medium in the cell plate • resulting in final concentration of DMSO: 0.3% in every well • and resulting in final concentration of compounds from 3 μM to 0.00015 μM • Incubate 168 h (7 days) at 37° C., 5% CO2
Analysis: • Add 30 μl CellTiter-Glo™ Reagent/well, • shake 15 minutes at room temperature • incubate further 45 minutes at room temperature without shaking.
Measurement: • Victor 2 scanning multiwell spectrophotometer (Wallac), Luminescence mode • Determine IC50 with XL-fit (XLfit software (ID Business Solution Ltd., Guilford, Surrey, UK)).

A549 cells = assay: MTT assay in A549 cells; type: cell-based, human; details: Homo sapiens, 120 h, 5 days incubation, 3 μM to 0.15 nM
Protocol: To further show the activity of the compounds according to this invention, their effects on a […] was evaluated using a standard MTT-assay. MTT (3-(4,5-dimethylthiazol-2-yl)-2,5-diphenyl tetrazolium bromide) is widely used for the quantitative determination of cytotoxic effects or in vitro chemosensitivity of tumor cells. The assay is based on the cleavage of the yellow tetrazolium salt (MTT) to purple formazan crystals by metabolic active cells. For details, see Rubinstein, L. V., et al., J. Natl. Cancer Inst. 82 (1990) 1113-1118.
A549 cells (human lung carcinoma cell line ATTC-No. CCL-185) were cultivated in RPMI (Roswell Park Memorial Institute) 1640 medium with GlutaMAX™ I (Invitrogen, Cat-No. 61870-010), 2,5% Fetal Calf Serum (FCS, Sigma Cat-No. F4135 (FBS)); 100 Units/ml penicillin/100 μg/ml streptomycin (=Pen/Strep from Invitrogen Cat. No. 15140). For the assay the cells were seeded in 384 well plates, 900 cells per well, in the same medium. The next day compounds (dissolved 10 mM in dimethylsulfoxide (DMSO)) were added in various concentrations ranging from 3 μM to 0.15 nM (10 concentrations, 1:3 diluted). After 5 days MTT assay was done mainly according to the instructions of the manufacturer (Cell proliferation kit I, MTT, from Roche Molecular Biochemicals). In brief: MTT labeling reagent (3-(4,5-dimethylthiazol-2-yl)-2,5-diphenyltetrazolium bromide (MTT)) was added to a final concentration of 0.5 mg/ml, added and incubated for 4 hrs at 37° C., 5% CO2. During this incubation time purple formazan crystals are formed. After addition of the solubilization solution (20% Sodium Dodecyl Sulfate (SDS) in 0.02 M HCl) the plates were incubated overnight at 37° C., 5% CO2. After careful mixing plates were measured in Victor 2 scanning multiwell spectrophotometer (Wallac) at 550 nm.
A decrease in number of living cells results in a decrease in the total metabolic activity in the sample. The decrease directly correlates to the amount of purple color resulting from the solubilization of the purple formazan crystals.
• A549: 900 cells in 60 μl per well of 384 well plate (Greiner) • Medium: RPMI 1640, 2.5% FCS, glutamine, Pen/Strep. • Incubate 1 day at 37° C.
Induction: • Dilution of compound in DMSO: 3 μl 10 mM+27 μl DMSO, dilute 1:3 • Add 2 μl of compound dilution row to 95 μl of medium • Add 10 μl of compound dilution to 60 μl medium in test plate resulting in 0.3% DMSO per well • Incubate 120 h (5 days) at 37° C., 5% CO2
Analysis: • Add 7 μl MTT (5 mg/7 ml/well), incubate 4 h at 37° C. • Add 30 μl lysis buffer (20% SDS, 0.04 N HCl) per well • Incubate overnight at 37° C.
Measurement: • Victor 2 scanning multiwell spectrophotometer (Wallac) at 550 nm
Determination of IC50 was done using XL-fit (XLfit software (ID Business Solution Ltd., Guilford, Surrey, UK)).

SMILES | IC50 (A549 cells) [nM] | IC50 (HEK293 cells) [nM]
OCCn1cc(CCCCc2ccc(OCc3coc(/C=C/c4ccc(OC(F)(F)F)cc4)n3)cc2)nn1 [Example 1.6, 2-{4-[4-(4-{2-[(E)-2-(4-Trifluoromethoxy-phenyl)-vinyl]-oxazol-4-ylmethoxy}-phenyl)-butyl]-[1,2,3]triazol-1-yl}-ethanol] | – | 166
CC(C)([PH2]=O)n1ncc(CCCCc2ccc(OCc3coc(/C=C/c4ccc(OC(F)(F)F)cc4)n3)cc2)n1 [Example 1.18, 2-(Dimethyl-phosphinoylmethyl)-4-[4-(4-{2-[(E)-2-(4-trifluoromethoxy-phenyl)-vinyl]-oxazol-4-ylmethoxy}-phenyl)-butyl]-2H-[1,2,3]triazole] | – | 5 to 250
CC(C)([PH2]=O)n1cc(CCCCc2ccc(OCc3coc(/C=C/c4ccc(OC(F)(F)F)cc4)n3)cc2)nn1 [Example 1.17, 1-(Dimethyl-phosphinoylmethyl)-4-[4-(4-{2-[(E)-2-(4-trifluoromethoxy-phenyl)-vinyl]-oxazol-4-ylmethoxy}-phenyl)-butyl]-1H-[1,2,3]triazole] | – | 250 to 1500
N#CCn1ncc(CCCCc2ccc(OCc3coc(/C=C/c4ccc(OC(F)(F)F)cc4)n3)cc2)n1 [Example 1.14, {4-[4-(4-{2-[(E)-2-(4-Trifluoromethoxy-phenyl)-vinyl]-oxazol-4-ylmethoxy}-phenyl)-butyl]-[1,2,3]triazol-2-yl}-acetonitrile] | – | 250 to 1500
OCCn1nncc1CCCCc1ccc(OCc2coc(/C=C/c3ccc(OC(F)(F)F)cc3)n2)cc1 [Example 1.7, 2-{5-[4-(4-{2-[(E)-2-(4-Trifluoromethoxy-phenyl)-vinyl]-oxazol-4-ylmethoxy}-phenyl)-butyl]-[1,2,3]triazol-1-yl}-ethanol] | – | 5 to 250
N#CCn1nncc1CCCCc1ccc(OCc2coc(/C=C/c3ccc(OC(F)(F)F)cc3)n2)cc1 [Example 1.16, {5-[4-(4-{2-[(E)-2-(4-Trifluoromethoxy-phenyl)-vinyl]-oxazol-4-ylmethoxy}-phenyl)-butyl]-[1,2,3]triazol-1-yl}-acetonitrile] | – | 250 to 1500
FC(F)(F)Oc1ccc(/C=C/c2nc(COc3ccc(CCCCc4cnn(CCN5CCOCC5)n4)cc3)co2)cc1 [Example 1.19, 4-(2-{4-[4-(4-{2-[(E)-2-(4-Trifluoromethoxy-phenyl)-vinyl]-oxazol-4-ylmethoxy}-phenyl)-butyl]-[1,2,3]triazol-2-yl}-ethyl)-morpholine] | – | 5 to 250

Now from value to compound, other results behind:

IC50 (A549 cells) [nM] | SMILES | IC50 (HEK293 cells) [nM]
200 to 1000 | FC(F)(F)Oc1ccc(/C=C/c2nc(COc3ccc(CCCCc4c[nH]nn4)cc3)co2)cc1 [Example 1.1, 4-[4-(4-{2-[(E)-2-(4-Trifluoromethoxy-phenyl)-vinyl]-oxazol-4-ylmethoxy}-phenyl)-butyl]-1H-[1,2,3]triazole] | 128
200 to 1000 | OCCn1nnnc1CCCCc1ccc(OCc2coc(C=Cc3ccc(OC(F)(F)F)cc3)n2)cc1 [Example 2.4, 2-{5-[4-(4-{2-[2-(4-Trifluoromethoxy-phenyl)-vinyl]-oxazol-4-ylmethoxy}-phenyl)-butyl]-tetrazol-1-yl}-ethanol] | 250 to 1500
5 to 200 | Cn1cc(CCCCc2ccc(OCc3coc(/C=C/c4ccc(OC(F)(F)F)cc4)n3)cc2)nn1 [Example 1.4, 1-Methyl-4-[4-(4-{2-[(E)-2-(4-trifluoromethoxy-phenyl)-vinyl]-oxazol-4-ylmethoxy}-phenyl)-butyl]-1H-[1,2,3]triazole] | 5 to 250
5 to 200 | OCCn1nnc(CCCCc2ccc(OCc3coc(C=Cc4ccc(OC(F)(F)F)cc4)n3)cc2)n1 [Example 2.5, 2-{5-[4-(4-{2-[2-(4-Trifluoromethoxy-phenyl)-vinyl]-oxazol-4-ylmethoxy}-phenyl)-butyl]-tetrazol-2-yl}-ethanol] | –
17 | Cn1nnnc1CCCCc1ccc(OCc2coc(/C=C/c3ccc(OC(F)(F)F)cc3)n2)cc1 [Example 2.2, Methyl-5-[4-(4-{2-[(E)-2-(4-trifluoromethoxy-phenyl)-vinyl]-oxazol-4-ylmethoxy}-phenyl)-butyl]-1H-tetrazole] | 5 to 250
200 to 1000 | FC(F)(F)Oc1ccc(/C=C/c2nc(COc3ccc(CCCCc4nn[nH]n4)cc3)co2)cc1 [Example 2.1, 5-[4-(4-{2-[(E)-2-(4-Trifluoromethoxy-phenyl)-vinyl]-oxazol-4-ylmethoxy}-phenyl)-butyl]-2H-tetrazole] | 250 to 1500
5 to 200 | Cn1nnc(CCCCc2ccc(OCc3coc(/C=C/c4ccc(OC(F)(F)F)cc4)n3)cc2)n1 [Example 2.3, Methyl-5-[4-(4-{2-[(E)-2-(4-trifluoromethoxy-phenyl)-vinyl]-oxazol-4-ylmethoxy}-phenyl)-butyl]-2H-tetrazole] | –
5 to 200 | Cn1ncc(CCCCc2ccc(OCc3coc(/C=C/c4ccc(OC(F)(F)F)cc4)n3)cc2)n1 [Example 1.3, 2-Methyl-4-[4-(4-{2-[(E)-2-(4-trifluoromethoxy-phenyl)-vinyl]-oxazol-4-ylmethoxy}-phenyl)-butyl]-2H-[1,2,3]triazole] | –
